# Measurements published in patent US20230240290A1, “USE OF (Z)-3-HEXENYL ESTERS AND METHOD FOR PROTECTING PLANTS AGAINST PESTS” (UNIVERSITAT POLITÈCNICA DE VALÈNCIA, priority 2020, published 2023).
# Columns and labels:
# Tuta absoluta [1] = test: Field (commercial greenhouse) assay, leaflets infested by T. absoluta; format: in vivo; settings: commercial tomato greenhouse, infested leaflets per plant, 500 dispensers/ha
# Procedure: To know the behavior of the dispensers loaded with (Z)-3-hexenyl propionate under real cultivation conditions, four commercial greenhouses for tomato cv Raf located in Xilxes (Castellón province), with a history of problems with T. absoluta contamination at the end of winter, were selected. An experimental design of randomized blocks was carried out where each greenhouse was considered a block with two treatments per block and 4 repetitions per treatment. […]
# Twenty plants randomly chosen by repetition were sampled weekly for 11 weeks, beginning 30 Jan. […] First, the number of leaflets infested by T. absoluta per plant was counted. Then the number of N. tenuis (adults and nymphs) throughout the apical third of each plant (leaves, flowers and shoots) was counted. Following the methodology described above, 6 samples were taken from the apical part of each plant per repetition, and these samples were immediately introduced into liquid nitrogen to quantify the expression of the PR1 and PIN2 genes (described in Example 1 and Example 2). The expression of these genes was quantified one day before, 4, and 8 weeks after hanging the dispensers in the greenhouses.
# [2] = test system: LOX2 (precursor of JA jasmonic acid); test: Transcriptional response of LOX2 in Carrizo citrange plants exposed to the volatile; format: in vivo; settings: intact Carrizo citrange plants exposed 24 h; n=6
# Procedure: Two weeks after seed germination, the seedlings were individually transplanted into pots (8×8×8 cm). The plants were kept in a greenhouse with a plastic cover at approximate climatic conditions of 25±5° C., a relative humidity of 65%±5%, and a natural light photoperiod, about 14:10 h (light:dark). Carrizo citrange plants that had not received any pesticide treatment at 8 weeks of age (approximately 20 cm tall) were used. The volatile (Z)-3-hexenyl propanoate was obtained from Sigma-Aldrich (St. Louis, Mo., USA). The volatile was exposed by using a 2×2 cm piece of filter paper on which 10 μl of a solution containing the corresponding volatile at a concentration of 1:10,000 [(Z)-3-hexenyl propanoate:methanol] was impregnated as an emitting source of the corresponding volatile (Pérez-Hedo, M. et al. Biocontrol, 63: 203-213 (2018)). […]
# The methodology followed for the extraction and quantification of gene expression was described by Pérez-Hedo et al. Journal of Pest Science 3: 543-554 (2015). The primers used were forward primer: 5′-[…]-3′ (SEQ ID NO: 11) and reverse primer: 5′-[…]-3′ (SEQ ID NO: 12) for the quantification of LOX2, forward primer: 5′-[…]-3′ (SEQ ID NO: 13) and reverse primer: 5′-[…]-3′ (SEQ ID NO: 14) for PAL and forward primer: 5′-[…]-3′ (SEQ ID NO: 15) and reverse primer: 5′-[…]-3′ (SEQ ID NO: 16) for the NPR5 gene. […]
# Tuta absoluta [3] = settings: in vivo
# Procedure: Two consecutive experiments were performed to assess the effect of exposure to both volatiles on T. absoluta. The first experiment studied the effect on the laying of T absoluta. The selected eggs laid in the first experiment were later used in the second experiment to study the mortality of immature T. absoluta specimens developed in plants exposed to (Z)-3-hexenyl propanoate. The same three treatments described above for T. urticae were also assayed for T. absoluta. The laying of T. absoluta was assessed in 8 tomato plants (cv. Moneymaker) per treatment. Each of the plants was isolated inside a plastic cage (60×60×60 cm) (BugDorm-2) and kept in a climatic chamber at 25±2° C., 65±5% HR, 14:10 (L:D) h photoperiod following the same assay distribution described for T. urticae. Inside each cage (replica), 2 adult pairs were released from T. absoluta (males and females) and left undisturbed for 72 hours. After this time, T. absoluta adults were removed, and the number of eggs was counted.
# To study the mortality of T. absoluta in the plants exposed to the 3 treatments described above, 6 T. absoluta eggs per plant were equally distributed on all the leaves with the help of a fine brush. […] Mortality of T. absoluta was assessed in 8 tomato plants (cv. Moneymaker) per treatment. […] As soon as the adults began to emerge, they were counted and removed daily from the cages.
compound,measurement,setting,value
CC/C=C\CCOC(=O)CC [(Z)-3-hexenyl propanoate],Infestation of T. absoluta lower than control,Tuta absoluta [1],about 58%
same,Transcriptional response of LOX2 compared to control,[2],significantly overexpressed
same,Mortality from T. absoluta egg to adult,Tuta absoluta [3],around 80%
